In data set [1] the test system is TMGMV. Briefly: Size exclusion chromatography with absorbance (Beer-Lambert) loading determination. The class given is physicochemical, Tobacco Mild Green Mosaic Virus. The settings on record: SEC absorbance 480 nm / 647 nm, Beer-Lambert law. As to the method:
TMGMV samples (500 μL at 0.5 mg/mL) were analyzed using a Superose6 Increase 100 GL column and an AKTA Pure25 chromatography system (GE Healthcare, Chicago, Il, USA) using a flow rate 0.5 mL/min in 10 mM KP (pH 7.4). […]
Size exclusion chromatography (SEC) was performed to further verify structural integrity of the AI-laden TMGMV particles during post-processing and purification.
(Size exclusion chromatography separates by hydrodynamic size, large species first.)

For data set [2] the following is noted: cited from earlier work.
The test system of data set [3] is TMGMV. Briefly: TEM/ImageJ width of TMGMV infused with AI by partial dissociation (breathing), Example 3. The format is physicochemical, Tobacco Mild Green Mosaic Virus. The settings on record: pH 7.5, 5 days, 500:1 equivalence ratio; TEM; control 18 nm. As to the method:
TMGMV at a concentration of 5 mg mL^−1 in KP buffer at pH 7.5 was kept for 5 days at 4° C. Addition of the target AI to the solution was done every 24 h until reaching a 500:1 equivalence ratio and left mixing on a rotary shaker. Afterwards, the solution was centrifuged at 50,000 rpm in the tabletop ultracentrifuge (Beckman Optima MAX-XP with TLA-55 rotor) for 1 hour on a sucrose cushion (30% w/v). The viral pellet was then resuspended in 10 mM KP pH 7 overnight at 4° C. on a rotary shaker. After total resuspension, the solution was dialyzed for 48 h to remove excess (non-entrapped) AI.
Samples were diluted to the concentration of 0.05 mg mL^−1 and absorbed onto carbon-coated TEM grids (Electron Microscopy Sciences). The grids were then washed three times with pure water. Then, grids were stained by 2% (w/v) uranyl acetate for 2 min for imaging. TEM was conducted using a FEI Tecnai F30 transmission electron microscope operated at 300 kV.
Experiments were conducted to load pesticides into TMGMV by strategically altering the pH. Without being bound by theory, this entraps Als through the formation of “pockets” between coat proteins (CPs). Without being bound by theory, the rationale is that by increasing the pH of the buffer, the virus will start to dissociate and hydrophobic pockets will get created between the virion's coat proteins. AIs are then added to interact with the virus particles and then the pH is decreased to promote particles' self-assembly and entrapment of AI on the hydrophobic pockets (see schematic of FIG. 7). As discussed above, TMGMV at a concentration of 5 mg mL-1 in KP buffer at pH 7.5 was kept for at 4° C. for 5 days, and the target AI was added to the solution every 24 h until reaching a 500:1 equivalence ratio. Afterwards, the solution was centrifuged at 50,000 rpm for 1 hour on a sucrose cushion (30% w/v). The viral pellet was then resuspended in 10 mM KP pH 7 overnight at 4° C., and after total resuspension, the solution was dialyzed for 48 h to remove excess (non-entrapped) AI. Samples were then observed at TEM and analyzed using ImageJ.
To determine the change in width (breathing/infusion) of the nanoparticles, the width of sections of 100 nm in length of nanoparticles (as shown in the micrography of FIG. 8) was measured. This was done to standardize the measurements and determine the change in width. At least 5 different sections were measured per micrography, and at least 30 sections were measured in total per sample.

In data set [4] the test system is TMGMV. Briefly: Quantitative TEM width analysis of AI-loaded TMGMV prepared via pH and DMSO methods, Example 6. The format is physicochemical, Tobacco Mild Green Mosaic Virus. The conditions noted are these: negative-stain TEM, native 15.7 nm; for maximum width of AI-loaded TMGMV: pH and DMSO methods. On the procedure:
(§1) Loading of AI into TMGMV via the “pH method” was performed. TMGMV at a concentration of 1 mg mL^−1 in 10 mM KP buffer at pH 7.5 was kept for 10 days at 4° C. The following AIs were used: fluopyram and clothianidin, (BASF, Berkeley, CA, USA), rifampicin and ivermectin (BioVision; Milpitas, CA, USA). Cy5 (Lumiprobe; Cockeysville, MD, USA) and doxorubicin (ApexBio; Houston, TX, USA) were also studied as proof of concept (fluorescent molecule and cancer chemotherapy). The AI was added to TMGMV by adding an excess of 10:1 AI:coat protein (CP; each TMGMV rod is assembled from ˜2,100 identical CPs) every day until a ratio of 100:1 was reached. During this process the reaction was kept mixing on a rotary shaker. 1 mL aliquots were obtained each day for further analysis.
(§2) Loading of AI into TMGMV via the “DMSO method” was performed. TMGMV in 10 mM KP buffer (pH 7.2) was diluted to 5 mg mL-1 in 2 mL of buffer and transferred to a 25 mL beaker and magnetically stirred at 300 rpm at room temperature. A solution of DMSO and 10 mM KP was added dropwise to dilute the solution to a 20% (v/v) concentration of DMSO and 2 mg mL-1 of TMGMV. Aliquots of the AIs were added dropwise to the solution to prevent precipitation. The solutions were left to stir at room temperature for 24 hours. The samples were collected and spin filtered as described above before being stored at 4° C.
TMGMV samples were diluted to a concentration of 0.05 mg mL-1 and absorbed onto carbon-coated TEM grids (Electron Microscopy Sciences, Hatfield, PA, USA). The grids were then washed three times with pure water. Then, grids were stained by 2% (w/v) uranyl acetate for 90 seconds. TEM was conducted using a FEI Tecnai F30 transmission electron microscope operated at 300 kV. Image analysis was performed using ImageJ software (https://imagej.nih.gov/ij/download.html). To determine the change in width of the nanoparticles, the width of sections of 100 nm in length was measured for standardization purposes. Five different sections were measured per micrography and 30 of them in total per sample. Subsequently, for the complete particle, the length, the perimeter and the area were measured, to later calculate the average width from the perimeter.
TEM imaging and quantitative TEM imaging analysis of the AI-loaded TMGMV nanoparticles prepared by the pH method and the DMSO method was performed. […] To gain insights into the degree of structural changes, quantitative TEM image analysis was performed comparing native vs. the AI-laden TMGMV. Based on the negative stain, native virions were 15.7 nm in width in average (±1.9 nm), which is an underestimation to native TMGMV of 18 nm. This may be due to the uranyl acetate negative staining yielding a heavy shadow on the borders of the virion, apparently reducing its width. While there was no statistical significance between the controls that underwent both methodologies (FIG. 27), for each compound the increment (in comparison to native TMGMV) was different, as well as between methodologies (FIG. 17A).

Data set [5] deals with TMGMV. Briefly: Quantification of loaded AI in TMGMV by HPLC. The format is physicochemical, Tobacco Mild Green Mosaic Virus. The settings on record: for Detected in sample / Molecules per CP / Molecules per virion: HPLC. On the procedure: as §1
After AI loading, the aliquots were spin-filtered using 100K molecular weight cut-off 0.5 mL filters (MilliporeSigma, Burlington, MA, USA). 200 μL of the aliquot and 250 μL of KP solution were added and then centrifuged at 16,160×g for 5 minutes at 4° C., the flow-through was discarded, and then 450 μL of KP was added and centrifuged again, this step was repeated 3 times. After the third centrifugation, the filter was inverted in a new tube and centrifuged at 1000×g for 2 minutes, to recover the supernatant and carry out the subsequent characterization.
as §2
For HPLC, AI was extracted from TMGMV. In brief, the concentration of TMGMV samples was adjusted to 1.2 mg mL-1 in KP. The solution was diluted 4-fold into a 1:1 acetonitrile/:methanol mixture and vortexed for 30 seconds. The solution was centrifuged at 10,000×g for 10 minutes at 4° C. and the organic phase (bottom fraction) was collected and transferred to an HPLC 2 mL glass screw top vial (SureSTART, Thermo Scientific, Waltham, MA, USA).
After a 10-fold dilution in acetonitrile, the extracted samples were injected at 500 μL and run on 5 μm C18 column (20×100 mm) using a Shimadzu LC-40 HPLC system (Columbia, MD, USA). The method was run at 0.5 mL min-1 in a gradient of acetonitrile and 0.02% (v/v) phosphoric acid for 15 minutes per sample. A photodiode array was used to collect absorbance values at 280 nm (fluopyram), 269 nm (clothianidin), 225 nm (ivermectin), and 330 nm (rifampicin). The absorbance values were fitted to a standard curve to identify sample concentration with N=3.

A further data set deals with β-CD-TMGMV. Briefly: Doxorubicin competition (displacement) assay for loading onto β-CD-TMGMV. The format is binding. The settings on record: competitor at 1000 eq, overnight at 4° C.
The mark [6] stands for this setting: DMSO method (20% v/v, 24 hours).

Method for β-CD-TMGMV: To assess loading of pesticides to β-CD-TMGMV, competition assays were completed between Doxorubicin (ApexBio) and the target molecules. Samples of 100 μL volume were prepared in a 96-well plate (Costar). For sample wells, 0.0825 mg of β-CD-conjugated TMGMV in KP buffer were added to the wells, in addition with doxorubicin at 10 eqβ-CD-TMIGMV (molar equivalents to β-CD-conjugated TMGMV).
Three control conditions were utilized: 1 eq TMGMV, 575 eq β-CD, and 1 eq TMGMV with 575 eq β-CD (non-conjugated). These control wells also received doxorubicin at 10 eq. The plate was incubated overnight at 4° C. on a plate rocker (Fisher). Fluorescence top readings were conducted on the plate (excitation 470 nm, emission 595 nm, 25 flashes) via UV-Vis Plate Reader (Tecan infinite 200Pro). […] Following a repeat overnight incubation at 4° C. on a plate rocker (Fisher), fluorescent reading was repeated as before.
Samples of 100 μL volume were prepared in a 96-well plate (Costar). For sample wells, 0.0825 mg of β-CD-conjugated TMGMV in KP buffer were added to the wells, in addition with doxorubicin at 10 eq (molar equivalents to β-CD-conjugated TMGMV). […] Fluorescence top readings were then conducted on the plate (excitation 470 nm, emission 595 nm, 25 flashes) via UV-Vis Plate Reader (Tecan infinite 200Pro). […] The fluorescence was then read on the plate reader as described before. […]

For the molecule `COc1cccc2c1C(=O)c1c(O)c3c(c(O)c1C2=O)C[C@@](O)(C(=O)CO)C[C@@H]3O[C@H]1C[C@H](N)[C@H](O)[C@H](C)O1` [Doxorubicin, doxorubicin], in the data set on TMGMV [1], the “loading, molecules per TMGMV” value is recorded as roughly 615. Further, the log partition coefficient (logP) in data set [2] is 0.02. Besides, in the data set on TMGMV [3], the “average width of infused TMGMV” value is recorded as 35 nm and the “increase in width vs native TMGMV control” value (“increase in width” below) is 89%.
For ivermectin, in the data set on TMGMV [4], the “width increase compared to negatively-stained native TMGMV” value (“width increase” for short) was found to be 46% and the “maximum width of AI-loaded TMGMV” value is listed as 23 nm. For the same molecule, the log partition coefficient (logP) in data set [2] is 4.4. Besides, in the data set with TMGMV [5] (24 hour DMSO vs 10-day pH), the “increase in loading using DMSO method vs pH method” value was 21.3 fold. For the same molecule, in the data set on TMGMV [5] (setting [6]), the Detected in sample came out at 0.44 µg/mL, the “Molecules per CP” value stood at 0.029 and the Molecules per virion came to 61.63. Moreover, in the data set with TMGMV [5] (pH method (pH 7.5, 10 days)), the Detected in sample came out at 0.02 µg/mL, the “Molecules per CP” value came out at 0.001 and the Molecules per virion stood at 2.89.
For the molecule `O=C(NCCc1ncc(C(F)(F)F)cc1Cl)c1ccccc1C(F)(F)F` [Fluopyram, fluopyram], in the data set with TMGMV [4], the “width increase” value was determined as 14% and the “maximum width of AI-loaded TMGMV” value came out at 18 nm. Also, the log partition coefficient (logP) in data set [2] is recorded as 3.33. Also, in the data set on TMGMV [3], the “average width of infused TMGMV” value is recorded as 22 nm and the “increase in width” value stood at 21%. The “increase in loading using DMSO method vs pH method” value in the data set on TMGMV [5] (24 hour DMSO vs 10-day pH) came to 11.7 fold. Further, in the data set on TMGMV [5] (setting [6]), the Detected in sample came to 0.61 µg/mL, the “Molecules per CP” value amounted to 0.087 and the Molecules per virion was 185.59. Also, in the data set with TMGMV [5] (pH method (pH 7.5, 10 days)), the Detected in sample is 0.05 µg/mL and the “Molecules per CP” value turned out to be 0.007. Moreover, the “doxorubicin initially bound to β-CD-TMGMV displaced” value with β-CD-TMGMV is 18.34%.
Regarding cyanine5 [Cyanine 5], the “loading, molecules per TMGMV” value with TMGMV [1] is on record as roughly 80. The log partition coefficient (logP) in data set [2] is given as 3.84.
In the case of `CN/C(=N\[N+](=O)[O-])NCc1cnc(Cl)s1` [Clothianidin, clothianidin], in the data set on TMGMV [4], the “width increase” value was determined as 65%. In addition, the logP in data set [2] is 1.3. Moreover, in the data set with TMGMV [3], the “average width of infused TMGMV” value is reported as 26 nm and the “increase in width” value came out at 38%. In addition, the “less loading using DMSO method vs pH method” value in the data set with TMGMV [5] (24 hour DMSO vs 10-day pH) was “about 10%”. Besides, in the data set with TMGMV [5] (setting [6]), the Detected in sample was found to be 2.06 µg/mL, the “Molecules per CP” value is 0.47 and the Molecules per virion worked out at 995. In addition, in the data set on TMGMV [5] (pH method (pH 7.5, 10 days)), the Detected in sample is 2.29 µg/mL, the “Molecules per CP” value came out at 0.52 and the Molecules per virion came to 1107.55. Further, the “doxorubicin initially bound to β-CD-TMGMV displaced” value in the data set on β-CD-TMGMV was 17.60%.
Turning to `CO[C@H]1/C=C/O[C@@]2(C)Oc3c(C)c(O)c4c(O)c(c(/C=N/N5CCN(C)CC5)c(O)c4c3C2=O)NC(=O)/C(C)=C\C=C\[C@H](C)[C@H](O)[C@@H](C)[C@@H](O)[C@@H](C)[C@H](OC(C)=O)[C@@H]1C` [Rifampicin, rifampicin], the logP in data set [2] is given as 2.4.

A word on the logP: it is the decadic logarithm of the partition coefficient of the neutral form, usually between octanol and water.

Source of the values: patent US20250312289A1, “METHODS AND COMPOSITIONS COMPRISING TOBACCO MILD GREEN MOSAIC VIRUS (TMGMV)” (priority 2022, published 2025).
